Activity calls are given as the source filed them.
Legend:
[1] = molecular target: T1, Amine oxidase [flavin-containing] B (Homo sapiens, UniProt P27338); assay: biochemical; assay type: cell-based, BTI
T1 sequence (P27338 whole entry): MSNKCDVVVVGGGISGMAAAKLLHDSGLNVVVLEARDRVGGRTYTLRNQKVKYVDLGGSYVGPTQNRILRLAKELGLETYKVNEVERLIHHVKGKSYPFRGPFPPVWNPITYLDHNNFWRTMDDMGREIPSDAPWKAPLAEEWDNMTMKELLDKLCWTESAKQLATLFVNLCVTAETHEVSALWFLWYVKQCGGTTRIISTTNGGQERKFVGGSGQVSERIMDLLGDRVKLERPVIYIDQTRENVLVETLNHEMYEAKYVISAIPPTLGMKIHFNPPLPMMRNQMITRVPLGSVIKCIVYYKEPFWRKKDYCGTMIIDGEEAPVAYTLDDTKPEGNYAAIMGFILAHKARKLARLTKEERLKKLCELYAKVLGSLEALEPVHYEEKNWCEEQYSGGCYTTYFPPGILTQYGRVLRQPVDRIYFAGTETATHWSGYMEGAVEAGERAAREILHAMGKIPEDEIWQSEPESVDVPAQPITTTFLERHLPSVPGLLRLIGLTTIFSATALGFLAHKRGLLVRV
Description: Inhibition of recombinant human MAO-B expressed in baculovirus infected BTI cells using p-tyramine as substrate by fluorometric assay

Rattus norvegicus [2] = assay: Antiinflammatory activity against Wistar (Krf:WI) rat assessed as reduction in carragenan-induced paw edema at 22.5 mg/kg treated prior to carrageenan challenge and measured after 24 hrs by plethysmometry relative to control; assay type: functional
Mus musculus = assay: Antiallodynic activity in oxaliplatin-induced peripheral neuropathy pain CD-1 mouse model assessed as inhibition of late-phase tactile allodynia by measuring pain sensitivity threshold at 22.5 mg/kg administered with compound intraperitoneally at 7 days after oxaliplatin stimulation and measured after 30 mins by von Frey test (reference value: 65.3%); assay type: functional; set-up: scale not given: the % may be the effect or the level left; settings: 0.5 h
Rattus norvegicus [3] = assay: Antiinflammatory activity against Wistar (Krf:WI) rat assessed as reduction in carragenan-induced paw edema at 30 mg/kg treated prior to carrageenan challenge and measured after 24 hrs by plethysmometry relative to control; assay type: functional
Cholinesterase [4] = molecular target: Cholinesterase (Equus caballus, UniProt P81908)
Chain of Cholinesterase (Equus caballus, UniProt P81908) (P81908 whole entry): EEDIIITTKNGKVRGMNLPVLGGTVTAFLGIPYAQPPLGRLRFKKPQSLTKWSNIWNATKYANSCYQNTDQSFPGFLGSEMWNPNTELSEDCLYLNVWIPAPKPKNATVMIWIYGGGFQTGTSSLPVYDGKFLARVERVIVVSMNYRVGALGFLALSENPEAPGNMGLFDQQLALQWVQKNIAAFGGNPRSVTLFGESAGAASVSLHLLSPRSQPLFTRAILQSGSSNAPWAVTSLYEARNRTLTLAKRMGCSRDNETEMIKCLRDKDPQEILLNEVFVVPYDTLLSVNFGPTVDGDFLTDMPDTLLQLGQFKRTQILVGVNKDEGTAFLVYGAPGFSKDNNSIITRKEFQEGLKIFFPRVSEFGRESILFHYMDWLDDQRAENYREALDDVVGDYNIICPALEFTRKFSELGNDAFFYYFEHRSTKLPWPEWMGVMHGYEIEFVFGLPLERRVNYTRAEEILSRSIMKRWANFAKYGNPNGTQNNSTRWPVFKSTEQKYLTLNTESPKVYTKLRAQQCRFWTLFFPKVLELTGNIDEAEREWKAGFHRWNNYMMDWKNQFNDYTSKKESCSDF
Description: Inhibition of equine serum BChE using BTCI as substrate incubated for 5 mins followed by substrate addition and measured after 5 mins by spectrophotometric based Ellman's method

in vitro = settings: PAMPA, pH 7.4
Description: Permeability of compound in PBS buffer assessed as permeability coefficient at pH 7.4 at 200 uM incubated for 5 hrs by PAMPA based LC-MS analysis

Rattus norvegicus [5] = assay: Antiinflammatory activity against Wistar (Krf:WI) rat assessed as reduction in carragenan-induced paw edema at 30 mg/kg treated prior to carrageenan challenge and measured after 6 hrs by plethysmometry relative to control; assay type: functional
Rattus norvegicus [6] = assay: Antiinflammatory activity against Wistar (Krf:WI) rat assessed as reduction in carragenan-induced paw edema at 30 mg/kg treated prior to carrageenan challenge and measured after 2 hrs by plethysmometry relative to control; assay type: functional
Rattus norvegicus [7] = assay: Memory enhancement effect in dizocilpine-induced Wistar (Krf:WI) rat model of amnesia assessed as decrease in transfer latency time at 1.25 to 5 mg/kg, ip measured after 30 to 45 mins by elevated plus maze test; assay type: functional, organism-based; settings: dose 1.25-5 mg/kg, time 30-45 min
[8] = molecular target: Cholinesterase (Equus caballus) (UniProt P81908); assay: Non-competitive inhibition of equine serum BChE using BTCI as substrate incubated for 5 mins followed by substrate addition and measured after 5 mins by spectrophotometric based Lineweaver-Burk plot analysis; assay type: cell-free; settings: time 10.0 min
Chain of Cholinesterase (Equus caballus) (P81908 whole entry): as above

Acetylcholinesterase = Acetylcholinesterase (Homo sapiens, UniProt P22303); assay: Inhibition of recombinant human AChE using ATCI as substrate incubated for 5 mins followed by substrate addition and measured after 5 mins by spectrophotometric based Ellman's method
Chain of Acetylcholinesterase (P22303 whole entry): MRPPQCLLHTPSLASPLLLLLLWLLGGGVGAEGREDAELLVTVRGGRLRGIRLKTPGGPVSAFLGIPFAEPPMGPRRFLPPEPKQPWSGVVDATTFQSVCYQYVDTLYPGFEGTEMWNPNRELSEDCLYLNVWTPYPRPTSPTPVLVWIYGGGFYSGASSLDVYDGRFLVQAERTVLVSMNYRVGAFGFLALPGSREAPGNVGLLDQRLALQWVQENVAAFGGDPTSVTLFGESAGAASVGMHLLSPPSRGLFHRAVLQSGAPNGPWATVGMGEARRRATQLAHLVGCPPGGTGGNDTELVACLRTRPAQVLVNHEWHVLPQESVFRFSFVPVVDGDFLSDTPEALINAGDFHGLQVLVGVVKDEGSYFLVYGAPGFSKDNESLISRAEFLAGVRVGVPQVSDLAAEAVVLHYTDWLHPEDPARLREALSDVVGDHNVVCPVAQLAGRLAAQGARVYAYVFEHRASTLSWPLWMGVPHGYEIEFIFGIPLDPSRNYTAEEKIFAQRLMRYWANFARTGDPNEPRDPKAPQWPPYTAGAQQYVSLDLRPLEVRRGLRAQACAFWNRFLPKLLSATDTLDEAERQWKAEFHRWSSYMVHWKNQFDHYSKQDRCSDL

Cholinesterase [9] = molecular target: Cholinesterase (Homo sapiens, UniProt P06276)
Chain of Cholinesterase (Homo sapiens, UniProt P06276) (P06276 whole entry): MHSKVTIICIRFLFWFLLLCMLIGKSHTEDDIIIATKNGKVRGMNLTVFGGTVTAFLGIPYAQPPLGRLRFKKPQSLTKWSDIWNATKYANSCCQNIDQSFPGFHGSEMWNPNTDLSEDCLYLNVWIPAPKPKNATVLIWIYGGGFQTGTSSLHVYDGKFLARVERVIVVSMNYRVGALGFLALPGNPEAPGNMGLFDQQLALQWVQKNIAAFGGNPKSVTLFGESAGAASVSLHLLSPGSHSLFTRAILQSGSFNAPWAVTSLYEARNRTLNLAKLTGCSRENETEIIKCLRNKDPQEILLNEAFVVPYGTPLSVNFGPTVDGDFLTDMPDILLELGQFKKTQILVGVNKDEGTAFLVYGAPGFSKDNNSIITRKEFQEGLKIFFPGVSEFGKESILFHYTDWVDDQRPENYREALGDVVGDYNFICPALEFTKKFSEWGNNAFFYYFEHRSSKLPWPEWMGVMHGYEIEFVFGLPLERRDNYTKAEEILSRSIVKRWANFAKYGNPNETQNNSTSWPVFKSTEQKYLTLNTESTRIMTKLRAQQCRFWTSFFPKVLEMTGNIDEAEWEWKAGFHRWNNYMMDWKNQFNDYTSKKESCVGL
Description: Inhibition of human BuChE by spectrophotometric based Ellman's method

Rattus norvegicus [10] = assay: Analgesic activity in carragenan-induced thermal hyperalgesia model of Wistar (Krf:WI) rat assessed as latency of nociceptive response for radiant heat stimulation at 30 mg/kg treated prior to carrageenan challenge and measured after 6 hrs (reference value: 43.2%); assay type: functional
Rattus norvegicus [11] = assay: Antiinflammatory activity against Wistar (Krf:WI) rat assessed as reduction in carragenan-induced paw edema at 22.5 mg/kg treated prior to carrageenan challenge and measured after 1 hr by plethysmometry relative to control; assay type: functional

**Q.** Which results are given for `O=c1c2ccccc2oc2ccc(OCCCCCN3CCCCCC3)cc12`?
**A.** IC50 [1]: 775 nM; inhibition in vivo at 22.5 mg/kg (Rattus norvegicus [2]): 22.4%; Activity (Mus musculus): 88.5%; inhibition in vivo at 30 mg/kg (Rattus norvegicus [3]): 57.8%; IC50 (Cholinesterase [4]): 880 nM; Papp at 5 h, 200 µM (in vitro): 5.6 ×10⁻⁶ cm/s; inhibition in vivo at 30 mg/kg (Rattus norvegicus [5]): 44.9%; inhibition in vivo at 30 mg/kg (Rattus norvegicus [6]): 53.3%; Activity (Rattus norvegicus [7]): Active; inhibition [8]: Active; IC50 (Acetylcholinesterase): 392 nM; IC50 (Cholinesterase [9]): 1280 nM; Activity (Rattus norvegicus [10]): 92%; inhibition in vivo at 22.5 mg/kg (Rattus norvegicus [11]): 36.1%

Reference: ChEMBL document CHEMBL4706551, “Rational design of new multitarget histamine H receptor ligands as potential candidates for treatment of Alzheimer's disease” (Eur J Med Chem, 2020)
